Source: the supplement of paper PMC11451515

Legend:
Test in all cases: AUC of viability dose-response curve (% viability x log10 dose units); higher = less sensitive
Details in all cases: 48 h
NOMO1 = tested on: NOMO1
Method in brief: (§1)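 Leukemia cells adapted to each medium (500 or 1000 cells/well, 1536-well plates) were exposed to library compounds in DMSO for 48 h at 37°C at 11 threefold doses, 47 μM to 0.79 nM. Luminescence by CellTiter-Glo One was normalised per plate to DMSO and cell-free wells, then fitted with a four-parameter log-logistic curve on log10 dose. Curves above full viability were scaled and quality-control failures removed before area under the curve was integrated by trapezoidal rule.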

P12-Ichikawa = tested on: P12-Ichikawa
Method in brief: as §1

SEM cells = tested on: SEM cells
Method in brief: as §1

[1] = RPMI 5 mM glucose + 10% dialyzed FBS

SMILES	AUC of viability dose-response curve (NOMO1; HPLM + 10% dialyzed FBS)	AUC of viability dose-response curve (NOMO1; RPMI 5 mM glucose + 10% FBS)	AUC of viability dose-response curve (NOMO1; [1])	AUC of viability dose-response curve (P12-Ichikawa; HPLM + 10% dialyzed FBS)	AUC of viability dose-response curve (P12-Ichikawa; RPMI 5 mM glucose + 10% FBS)	AUC of viability dose-response curve (P12-Ichikawa; [1])	AUC of viability dose-response curve (SEM cells; HPLM + 10% dialyzed FBS)	AUC of viability dose-response curve (SEM cells; RPMI 5 mM glucose + 10% FBS)	AUC of viability dose-response curve (SEM cells; [1])
C=CCc1cccc(/C=N/NC(=O)CN2CCN(Cc3ccccc3)CC2)c1O	419	448	433	420	424	417	399	411	378
COc1cc([C@H]2Oc3cc([C@H]4Oc5cc(O)cc(O)c5C(=O)[C@@H]4O)ccc3O[C@@H]2CO)ccc1O	470	465	452	464	446	456	455	473	467
CC(C)c1cnn2c(NCc3ccccc3)cc(NCCCCCCN)nc12	464	470	463	464	442	439	465	416	471
Cc1[nH]c(/C=C2\C(=O)Nc3ccccc32)c(C)c1CCC(=O)O	433	434	457	406	408	419	245	288	236
N#Cc1ccnc(Nc2cc(C3CCN(C4COC4)CC3)cc(N3CCC(F)(F)C3)n2)c1	430	429	426	455	441	439	424	415	408
CC1=C(CC(=O)O)c2cc(F)ccc2/C1=C\c1ccc([S+](C)[O-])cc1 (stereo unspecified)	448	453	445	458	451	449	450	422	430
Cc1ccc([S+](=O)([O-])Nc2nc3ccccc3nc2Nc2ccc3nsnc3c2)cc1	361	360	365	422	405	438	410	440	409
C[S+](=O)([O-])c1cccc(CNc2nc(Nc3ccc4c(c3)CCC(=O)N4)ncc2C(F)(F)F)c1	436	446	454	450	444	451	331	367	355
COC(=O)C1C2CC3c4[nH]c5cc(OC)ccc5c4CCN3CC2CC(OC(=O)c2cc(OC)c(OC)c(OC)c2)C1OC (stereo unspecified)	465	454	468	467	471	445	462	459	456
CC[C@]12\C=C/CN3CC[C@]4([C@@H](N(C)C5=CC(=C(C=C45)[C@]6(C[C@H]7C[C@H](CN(C7)CC8=C6[NH]C9=C8C=CC=C9)C(C)(F)F)C(=O)OC)OC)[C@](O)([C@@H]1OC(C)=O)C(=O)OC)[C@H]23	256	221	250	189	176	212	215	179	196
C[S+](=O)([O-])c1ccc(-c2cnc(N)c(C(=O)Nc3ccccc3)n2)cc1	435	462	455	462	453	449	413	423	408
NC(=O)c1cccc2cn(-c3ccc([C@@H]4CCCNC4)cc3)nc12	468	456	470	453	441	458	438	448	446
CCCCCCCCCC(=O)N[C@@H](Cc1c[nH]c2ccccc12)C(=O)N[C@H](CC(N)=O)C(=O)N[C@@H](CC(=O)O)C(=O)N[C@@H]1C(=O)NCC(=O)N[C@@H](CCCN)C(=O)N[C@@H](CC(=O)O)C(=O)N[C@H](C)C(=O)N[C@@H](CC(=O)O)C(=O)NCC(=O)N[C@H](CO)C(=O)N[C@@H]([C@@H](C)CC(=O)O)C(=O)N[C@@H](CC(=O)c2ccccc2N)C(=O)O[C@@H]1C	459	466	469	459	454	460	458	455	469
O=C(O)/C=C/c1ccc(O)c(O)c1	454	453	462	449	447	443	447	423	428
